Source: PubChem BioAssay AID330 (DTP/NCI, 2004)
Where “and” joins values, the source holds several entries; their conditions need not be identical. Equal entries are not always repeated. Toxic doses and inconclusive results are not listed. The calls were made as follows: active = survival T/C of 150% or more; inactive = T/C below 125% in these data.

System: P388 leukemia ip, CD2F1 mice, survival T/C
Assay: NCI In Vivo Anticancer Drug Screen. Data for tumor model P388 Leukemia (intraperitoneal) in CD2F1 (CDF1) mice
Conditions: endpoint: median survival time, higher = longer survival
Method in brief: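 Mice carrying the transplanted tumor received test compound or vehicle. Survival was recorded in each group, and the value is the treated-group measurement divided by that of the vehicle-treated control group.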

[1] = dose: 1.56 mg/kg/injection, schedule: Q01DX009 (ip), vehicle: saline
[2] = dose: 3.12 mg/kg/injection, schedule: Q01DX009 (ip), vehicle: saline
[3] = dose: 7.5 mg/kg/injection, schedule: Q01DX005 (ip), vehicle: Klucel (hydroxypropylcellulose) (HPC)
[4] = dose: 15.0 mg/kg/injection, schedule: Q01DX005 (ip), vehicle: Klucel (hydroxypropylcellulose) (HPC)
[5] = dose: 60.0 mg/kg/injection, schedule: Q01DX005 (ip), vehicle: Klucel (hydroxypropylcellulose) (HPC)
[6] = dose: 240.0 mg/kg/injection, schedule: Q01DX005 (ip), vehicle: Klucel (hydroxypropylcellulose) (HPC)
[7] = dose: 50.0 mg/kg/injection, schedule: Q01DX005 (ip), vehicle: saline with Tween-80
[8] = dose: 200.0 mg/kg/injection, schedule: Q01DX005 (ip), vehicle: saline with Tween-80
[9] = dose: 50.0 mg/kg/injection, schedule: Q01DX009 (ip), vehicle: saline with Tween-80
[10] = dose: 50.0 mg/kg/injection, schedule: Q01DX009 (ip), vehicle: saline
[11] = dose: 100.0 mg/kg/injection, schedule: Q01DX009 (ip), vehicle: saline with Tween-80
[12] = dose: 60.0 mg/kg/injection, schedule: Q01DX005 (ip), vehicle: saline with Tween-80
[13] = dose: 120.0 mg/kg/injection, schedule: Q01DX005 (ip), vehicle: saline with Tween-80
[14] = dose: 240.0 mg/kg/injection, schedule: Q01DX005 (ip), vehicle: saline with Tween-80
[15] = dose: 100.0 mg/kg/injection, schedule: Q01DX001 (ip), vehicle: saline with Tween-80
[16] = dose: 200.0 mg/kg/injection, schedule: Q01DX001 (ip), vehicle: saline with Tween-80
[17] = dose: 120.0 mg/kg/injection, schedule: Q01DX005 (ip), vehicle: Klucel (hydroxypropylcellulose) (HPC)

Measured: T/C

CCCCCCCCCCC[N+]1(CC)CCCC1
inactive: dose: 0.19 mg/kg/injection, schedule: Q01DX009 (ip), vehicle: saline 103 % of control | dose: 0.39 mg/kg/injection, schedule: Q01DX009 (ip), vehicle: saline 98 % of control and 109 % of control | dose: 0.78 mg/kg/injection, schedule: Q01DX009 (ip), vehicle: saline 98 % of control and 104 % of control and 115 % of control | [1] 99 % of control | [2] 111 % of control

CCOc1c(N=Nc2ccc([N+](=O)[O-])cc2)c(C)nn1C(=S)SC
inactive: dose: 1.87 mg/kg/injection, schedule: Q01DX005 (ip), vehicle: Klucel (hydroxypropylcellulose) (HPC) 108 % of control | dose: 3.75 mg/kg/injection, schedule: Q01DX005 (ip), vehicle: Klucel (hydroxypropylcellulose) (HPC) 105 % of control | [3] 105 % of control and 89 % of control | [4] 97 % of control | [5] 90 % of control | [6] 87 % of control

O/N=C(Sc1ccccn1)/C(=N/O)Sc1ccccn1
inactive: [7] 101 % of control | dose: 100.0 mg/kg/injection, schedule: Q01DX005 (ip), vehicle: saline with Tween-80 109 % of control | [8] 113 % of control

NCCOCCN
inactive: dose: 60.0 mg/kg/injection, schedule: Q01DX005 (ip), vehicle: saline 100 % of control | dose: 120.0 mg/kg/injection, schedule: Q01DX005 (ip), vehicle: saline 101 % of control | dose: 240.0 mg/kg/injection, schedule: Q01DX005 (ip), vehicle: saline 95 % of control

Cc1c(-c2ccccc2)ccnc1/C=N/NC(=S)Nc1ccccc1
inactive: [1] 89 % of control | [2] 92 % of control | dose: 6.25 mg/kg/injection, schedule: Q01DX009 (ip), vehicle: saline 88 % of control and 95 % of control | dose: 25.0 mg/kg/injection, schedule: Q01DX009 (ip), vehicle: saline with Tween-80 89 % of control | [9] 89 % of control | [10] 86 % of control

CC(=O)OC(OC(C)=O)c1ccc([N+](=O)[O-])c([N+](=O)[O-])c1
inactive: dose: 12.5 mg/kg/injection, schedule: Q01DX010 (ip), vehicle: saline 104 % of control | dose: 25.0 mg/kg/injection, schedule: Q01DX010 (ip), vehicle: saline 109 % of control | dose: 50.0 mg/kg/injection, schedule: Q01DX010 (ip), vehicle: saline 100 % of control

Nc1nc(N)c2nc(C(=O)c3ccccc3)c(-c3ccccc3)nc2n1
inactive: [9] 92 % of control | [11] 97 % of control | dose: 200.0 mg/kg/injection, schedule: Q01DX009 (ip), vehicle: saline with Tween-80 90 % of control

CCC/C(=N\NC(=S)N1CCN(c2ccccn2)CC1)c1ccccn1
inactive: dose: 6.25 mg/kg/injection, schedule: Q01DX005 (ip), vehicle: saline with Tween-80 102 % of control and 104 % of control | dose: 12.5 mg/kg/injection, schedule: Q01DX005 (ip), vehicle: saline with Tween-80 107 % of control and 110 % of control

O=C(/C=C/c1c[nH]c2ccccc12)c1ccccc1O
inactive: [12] 98 % of control | [13] 90 % of control | [14] 98 % of control

COc1cc2cnc(-c3ccc(Cl)c(Cl)c3)cc2cc1OC
inactive: dose: 25.0 mg/kg/injection, schedule: Q01DX009 (ip), vehicle: saline 100 % of control | [10] 97 % of control | dose: 100.0 mg/kg/injection, schedule: Q01DX009 (ip), vehicle: saline 89 % of control

CCOC(=O)C1=C(C)OC(C)(/N=C(\C#N)C(=O)OC)C1c1ccccc1 (centres undefined)
inactive: [12] 93 % of control | [13] 95 % of control | [14] 98 % of control

CCn1c(Cl)c(/C=N/NS(=O)(=O)c2ccc(C)cc2)c2cccc(/C=N\NS(=O)(=O)c3ccc(C)cc3)c21
inactive: dose: 50.0 mg/kg/injection, schedule: Q01DX001 (ip), vehicle: Klucel (hydroxypropylcellulose) (HPC) 99 % of control | dose: 100.0 mg/kg/injection, schedule: Q01DX001 (ip), vehicle: Klucel (hydroxypropylcellulose) (HPC) 96 % of control

CC1CCC2CC(=O)NC(=O)CC12 (centres undefined)
inactive: dose: 6.25 mg/kg/injection, schedule: Q04DX003 (ip), vehicle: saline with Tween-80 100 % of control | dose: 12.5 mg/kg/injection, schedule: Q04DX003 (ip), vehicle: saline with Tween-80 100 % of control | dose: 25.0 mg/kg/injection, schedule: Q04DX003 (ip), vehicle: saline with Tween-80 104 % of control

O=C1NCCN1c1cccc([N+](=O)[O-])c1
inactive: dose: 12.5 mg/kg/injection, schedule: Q01DX009 (ip), vehicle: saline sonified 90 % of control | dose: 25.0 mg/kg/injection, schedule: Q01DX009 (ip), vehicle: saline sonified 100 % of control | dose: 50.0 mg/kg/injection, schedule: Q01DX009 (ip), vehicle: saline sonified 90 % of control

C=CCNC(=S)NNC(=O)CNC(c1ccc(OC)cc1)C(CC)c1ccc(OC)cc1 (centres undefined)
inactive: [15] 99 % of control | [16] 110 % of control

CC1CCC=CC(=O)C1 (centres undefined)
inactive: dose: 100.0 mg/kg/injection, schedule: Q04DX003 (ip), vehicle: Klucel (hydroxypropylcellulose) (HPC) 102 % of control | dose: 200.0 mg/kg/injection, schedule: Q04DX003 (ip), vehicle: Klucel (hydroxypropylcellulose) (HPC) 108 % of control

Cn1cnc2c1c(=O)n(N)c(=O)n2C
inactive: [5] 102 % of control | [17] 98 % of control | [6] 92 % of control

O=C1C=CC(=O)c2nc3ccccc3nc21
inactive: dose: 1.56 mg/kg/injection, schedule: Q01DX009 (ip), vehicle: distilled water + Tween-80 87 % of control | dose: 3.12 mg/kg/injection, schedule: Q01DX009 (ip), vehicle: distilled water + Tween-80 103 % of control | dose: 6.25 mg/kg/injection, schedule: Q01DX009 (ip), vehicle: distilled water + Tween-80 105 % of control and 106 % of control

Cc1cnc(N/N=C/c2c(CO)cnc(C)c2O)s1
inactive: [3] 99 % of control | [4] 94 % of control | dose: 30.0 mg/kg/injection, schedule: Q01DX005 (ip), vehicle: Klucel (hydroxypropylcellulose) (HPC) 86 % of control | [13] 93 % of control | [14] 112 % of control

OC(Cc1nc2ccccc2s1)c1ccco1 (centres undefined)
inactive: [5] 101 % of control | [17] 103 % of control | [6] 103 % of control

C=CC(=NC(C)(C)C)Nc1ccc(C(=O)OCC)cc1
inactive: [9] 113 % of control | [11] 106 % of control

CC1=Nc2ccccc2S/C1=C(/C)NN
inactive: [15] 104 % of control | [16] 104 % of control | dose: 400.0 mg/kg/injection, schedule: Q01DX001 (ip), vehicle: saline with Tween-80 95 % of control

COc1ccc(-n2c3c(c4c(N)ncnc42)CCCC3)cc1
inactive: [12] 105 % of control | [13] 93 % of control

O=S(=O)(Nc1ccccc1F)c1ccc(F)cc1
inactive: [12] 106 % of control | [13] 100 % of control | [14] 106 % of control

COc1cc2c(cc1OC)C1CC(CC3CCCCN31)OC(=O)/C=C\c1ccc(O)c-2c1 (centres undefined)
inactive: dose: 25.0 mg/kg/injection, schedule: Q04DX003 (ip), vehicle: saline 105 % of control | dose: 50.0 mg/kg/injection, schedule: Q04DX003 (ip), vehicle: saline 111 % of control | dose: 100.0 mg/kg/injection, schedule: Q04DX003 (ip), vehicle: saline 102 % of control and 86 % of control

O=c1ccnc2ccccn12
inactive: [12] 94 % of control | [13] 107 % of control | [14] 100 % of control

O=C(NCCCC1NC(=O)/C(=C(O)/C=C/C=C/c2ccccc2)C1=O)OCc1ccccc1 (centres undefined)
inactive: [7] 88 % of control | [8] 92 % of control
